This is an account of results in publication PMC4505424, “A Novel Mechanism for Binding of Galactose-terminated Glycans by the C-type Carbohydrate Recognition Domain in Blood Dendritic Cell Antigen 2” (The Journal of Biological Chemistry, 2015).

Each structure is given as a SMILES string.

Assay [1] has as its target T1, BDCA-2 CRD (blood dendritic cell antigen 2) (Homo sapiens, UniProt Q8WTT0).
T1 construct: gene CLEC4C; extracellular C-type carbohydrate recognition domain; expected mass of CRD 17,100; monomer
T1 sequence (Q8WTT0 67-213): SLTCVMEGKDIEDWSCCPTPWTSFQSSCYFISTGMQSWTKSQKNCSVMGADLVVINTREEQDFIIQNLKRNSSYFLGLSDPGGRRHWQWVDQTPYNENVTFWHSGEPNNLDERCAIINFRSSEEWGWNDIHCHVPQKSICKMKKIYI
The experiment in a line: solid-phase competition with […]-Man-BSA on immobilised CRD. The class given is binding. As to conditions: half-maximal inhibition, Ca2+-dependent.

Assay [2] has as its target T1, BDCA-2 CRD (blood dendritic cell antigen 2). The assay is described as above. The class given is binding. As to conditions: half-maximal inhibition; Ca2+-dependent.

In assay [1] (extended site, mannose at Ca2+), `CC(=O)N[C@H]1[C@H](O[C@@H]2C(O)O[C@H](CO)[C@@H](O)[C@@H]2O)O[C@H](CO)[C@@H](O[C@@H]2O[C@H](CO)[C@H](O)[C@H](O)[C@H]2O)[C@@H]1O` (some centres unmarked) [Galβ1–4GlcNAcβ1–2Man] gave a Ki of 9.2 ± 1.4 µM.

For `CO[C@H]1O[C@H](CO)[C@@H](O)[C@H](O)[C@H]1NC(C)=O` [GlcNAc (α-methyl glycoside)], in assay [2], the “KI relative to KI for α-methyl mannoside” value was “including glucose and GlcNAc, as well as L-fucose, also compete for binding”.

For the compound `CC(=O)N[C@H]1[C@H](O[C@@H]2C(O)O[C@H](CO)[C@@H](O)[C@@H]2O)O[C@H](CO)[C@@H](O)[C@@H]1O` (some centres unmarked) [GlcNAcβ1–2Man], in assay [1], the Ki turned out to be 92 ± 12 µM.

With `CO[C@@H]1O[C@@H](C)[C@@H](O)[C@@H](O)[C@@H]1O` [L-fucose (α-methyl glycoside)], in assay [2], the “KI relative to KI for α-methyl mannoside” value is “including glucose and GlcNAc, as well as L-fucose, also compete for binding”.

Compound `CC(=O)N[C@H]1[C@H](O[C@H]2[C@H](O)[C@@H](NC(C)=O)C(O)O[C@@H]2CO)O[C@H](CO)[C@@H](O[C@@H]2O[C@H](CO[C@H]3O[C@H](CO)[C@@H](O)[C@H](O)[C@@H]3O[C@@H]3O[C@H](CO)[C@@H](O[C@@H]4O[C@H](CO)[C@H](O)[C@H](O)[C@H]4O)[C@H](O)[C@H]3NC(C)=O)[C@@H](O)[C@H](O[C@H]3O[C@H](CO)[C@@H](O)[C@H](O)[C@@H]3O[C@@H]3O[C@H](CO)[C@@H](O[C@@H]4O[C@H](CO)[C@H](O)[C@H](O)[C@H]4O)[C@H](O)[C@H]3NC(C)=O)[C@@H]2O)[C@@H]1O` (some centres unmarked) [asialo biantennary glycan] returned a Ki in assay [1] of 0.46 ± 0.01 µM.

As to `CC(=O)N[C@H]1[C@H](O[C@H]2[C@H](O)[C@@H](NC(C)=O)C(O)O[C@@H]2CO)O[C@H](CO)[C@@H](O[C@@H]2O[C@H](CO[C@H]3O[C@H](CO)[C@@H](O)[C@H](O)[C@@H]3O[C@@H]3O[C@H](CO)[C@@H](O[C@@H]4O[C@H](CO[C@]5(C(=O)O)C[C@H](O)[C@@H](NC(C)=O)[C@H]([C@H](O)[C@H](O)CO)O5)[C@H](O)[C@H](O)[C@H]4O)[C@H](O)[C@H]3NC(C)=O)[C@@H](O)[C@H](O[C@H]3O[C@H](CO)[C@@H](O)[C@H](O)[C@@H]3O[C@@H]3O[C@H](CO)[C@@H](O[C@@H]4O[C@H](CO[C@]5(C(=O)O)C[C@H](O)[C@@H](NC(C)=O)[C@H]([C@H](O)[C@H](O)CO)O5)[C@H](O)[C@H](O)[C@H]4O)[C@H](O)[C@H]3NC(C)=O)[C@@H]2O)[C@@H]1O` (some centres unmarked) [disialylated oligosaccharide], the Ki in assay [1] was 320 ± 20 µM.

Regarding `CO[C@H]1O[C@H](CO)[C@H](O)[C@H](O)[C@H]1O` [galactose (α-methyl glycoside)], in assay [2], the “KI relative to KI for α-methyl mannoside” value was “Comparison of mannose and galactose as competing ligands confirmed the affinity chromatography results”.

As to `CO[C@H]1O[C@H](CO)[C@@H](O)[C@H](O)[C@H]1O` [glucose (α-methyl glycoside)], the “KI relative to KI for α-methyl mannoside” value in assay [2] was “including glucose and GlcNAc, as well as L-fucose, also compete for binding”.

As usually defined, the Ki is a measure of affinity in units of concentration, obtained from inhibition or displacement. Higher therefore signals a looser hold on the target.
